In patent US11261201B2 (priority 2018, dated 2022):
Values after ≈ are worked out from the molar mass of the structure shown. Structures can show the parent of a compound that is named as a salt. Where two headings read alike, the source gives them in different places.

Key:
[1] = system: H37RvMA; assay: Tuberculosis Alamar Blue/Resazurin assay (MIC); format: cell-based; conditions: read-out: WT H37Rv MTB Activity
[2] = system: A. baumannii; assay: Gram negative MIC protocol (OD600, LB, 24 h); conditions: Acinetobacter baumannii
Protocol: (§1) Overnight bacterial cultures were grown in LB with no added antibiotics at 37° C. with shaking. A 1:1000 dilution of these cultures into LB was exposed to concentration gradients of compounds in 96-well plates (100 μL per well assay volume). Resulting plates were incubated at 37° C. for 24 h without shaking, and OD600 was measured at the end of the incubation. MICs were determined as the lowest concentrations at which OD600 remained at baseline.

[3] = system: E. coli; assay: Gram negative MIC protocol (OD600, LB, 24 h); conditions: Escherichia coli
Protocol: as §1

[4] = Mycobacterium tuberculosis, H37RV, WT H37Rv MTB
[5] = read-out: MIC A. baumannii LB Media, A. baumannii, LB media, 24 h, OD600
[6] = read-out: MIC E. coli delta-TolC LB Media, E. coli delta-TolC, LB media, OD600
[7] = read-out: MIC WT E. coli LB Media, WT E. coli, LB media, OD600
[8] = Mycobacterium tuberculosis, H37RV
[9] = read-out: MIC E. coli delta-TolC LB Media, E. coli delta-TolC strain, LB media, 24 h, OD600
[10] = read-out: MIC WT E. coli LB Media, wild-type E. coli, LB media, 24 h, OD600

SMILES	MIC [1, 4]	MIC [2, 5]	MIC [3, 6]	MIC [3, 7]	MIC [1, 8]	MIC ([2]; read-out: MIC A. baumannii LB Media)	MIC [3, 9]	MIC [3, 10]	MIC ([1]; WT H37Rv MTB)
C1=C(CCNCc2ccccc2)CCC1 [B39]	> 150 µM	> 150 µM	> 150 µM	> 150 µM					
c1ccc(CNCCc2ccc3c(c2)CCO3)cc1 [B24]			> 150 µM	> 150 µM	> 150 µM	> 150 µM			
c1ccc(CNCCc2ccc3cn[nH]c3c2)cc1 [B58]	> 150 µM	> 150 µM	> 150 µM	> 150 µM					
CCSCCOc1ccccc1CNC(C)CC1CCCCC1 (stereo not shown) [B314]	150 µM (≈ 50.3 µg/mL)	91 µM (≈ 30.5 µg/mL)					4 µM (≈ 1.34 µg/mL)	150 µM (≈ 50.3 µg/mL)	
Oc1cccc(CNCCC2CCCCC2)c1 [B356]	> 150 µM	> 150 µM					> 150 µM	> 150 µM	
CC(CC1CCCCC1)NCc1ccccc1CS(=O)(=O)NC1CCN(C)CC1 (stereo not shown) [B432, 1-(2-(((1-cyclohexylpropan-2-yl)amino)methyl)phenyl)-N-(1-methylpiperidin-4-yl)methanesulfonamide]	> 150 µM	> 150 µM	33 µM (≈ 13.9 µg/mL)	150 µM (≈ 63.2 µg/mL)					
C1=C(CCNCc2cccs2)CCCC1 [B152]	> 150 µM	> 150 µM	> 150 µM	> 150 µM					
CC(CC1CCCCC1)NCc1ccccc1OC1CCCCC1C (stereo not shown) [B389, 1-cyclohexyl-N-(2-((2-methylcyclohexyl)oxy)benzyl)propan-2-amine]	33.4 µM (≈ 11.5 µg/mL)	91 µM (≈ 31.3 µg/mL)					3 µM (≈ 1.03 µg/mL)	> 150 µM	
c1ccc(OCC2CCOC2)c(CNCCC2CCCCC2)c1 (stereo not shown) [B330, 2-cyclohexyl-N-(2-((tetrahydrofuran-3-yl)methoxy)benzyl)ethanamine]	> 150 µM	> 150 µM					33 µM (≈ 10.5 µg/mL)	> 150 µM	
COc1ccc(C(C)CNCc2ccccc2)cc1OC (stereo not shown) [B44]		> 150 µM	> 150 µM	> 150 µM	> 150 µM				
c1coc(-c2ccccc2CNCCC2CCCCC2)c1 [B236, 2-cyclohexyl-N-(2-(furan-2-yl)benzyl)ethanamine hydrochloride]	150 µM	300 µM					17 µM	54 µM	
CC(CC1CCCCC1)NCc1ccccc1OCC(=O)NCC1CC1 (stereo not shown) [B284]	> 150 µM	> 150 µM					7 µM (≈ 2.51 µg/mL)	> 150 µM	
CC(CC1CCCCC1)NCc1ccccc1OCC1CCOCC1 (stereo not shown) [B281]	91 µM (≈ 31.4 µg/mL)	91 µM (≈ 31.4 µg/mL)					4 µM (≈ 1.38 µg/mL)	> 150 µM	
COCC(CC1CCCCC1)NCc1ccccc1 (stereo not shown) [B202, N-benzyl-1-cyclohexyl-3-methoxypropan-2-amine hydrochloride]	> 150 µM	> 300 µM					> 300 µM	> 300 µM	
c1ccc(CNC2CCc3cccc4cccc2c34)cc1 (stereo not shown) [B195]	> 150 µM	> 300 µM	300 µM (≈ 82 µg/mL)	> 300 µM					
CCc1ccccc1CNCCC1CCCCC1 [B228, 2-cyclohexyl-N-(2-ethylbenzyl)ethanamine hydrochloride]	91 µM	300 µM					20 µM	170 µM	
c1ccc(CNC2(Cc3ccccc3)CC2)cc1 [B49]	> 150 µM	> 150 µM	> 150 µM	> 150 µM					
CC(CC1CCCCC1)NCc1ccccc1OC1CCCCC1 (stereo not shown) [B387, 1-cyclohexyl-N-(2-(cyclohexyloxy)benzyl)propan-2-amine]	33.4 µM (≈ 11 µg/mL)	55 µM (≈ 18.1 µg/mL)					3 µM (≈ 0.989 µg/mL)	91 µM (≈ 30 µg/mL)	
CC(CC1CCCCC1)NCc1ccccc1OCC1CN(C2CC2)C(=O)O1 (stereo not shown) [B367]	> 150 µM	150 µM (≈ 58 µg/mL)					5 µM (≈ 1.93 µg/mL)	150 µM (≈ 58 µg/mL)	
OC1(CCNCc2ccccc2)CC2CCC1C2 (stereo not shown) [B60]	> 150 µM	> 150 µM	> 150 µM	> 150 µM					
c1ccc(CNCCc2ccc3[nH]ncc3c2)cc1 [B115]	> 150 µM	> 150 µM	> 150 µM	> 150 µM					
CCCC(CC1CCCCC1)NCc1ccccc1 (stereo not shown) [B165, N-benzyl-1-cyclohexylpentan-2-amine]	> 150 µM	> 150 µM	60 µM (≈ 15.6 µg/mL)	> 300 µM					
CC(=O)Oc1ccccc1CNCCC1CCCCC1 [B256, 2-((2-cyclohexylethylamino)methyl)phenyl acetate]	> 150 µM	> 150 µM					150 µM	> 150 µM	
c1ccc(CNCCC23CC4CC(CC(C4)C2)C3)cc1 [B198]		170 µM (≈ 45.8 µg/mL)					170 µM (≈ 45.8 µg/mL)	> 300 µM	91 µM (≈ 24.5 µg/mL)
COc1ccc(C(C)C(C)NCc2ccccc2)cc1OC (stereo not shown) [B54]		> 150 µM	> 150 µM	> 150 µM	> 150 µM				
